# Assay results published in ChEMBL document CHEMBL5291721, “A preclinical secondary pharmacology resource illuminates target-adverse drug reaction associations of marketed drugs” (Nat Commun, 2023).
# *1 amine or outer side, *2 acyl side, *3 side chain or, on linkers, in order; H or OH if unused. Where a SMILES comes first, the peptide text is derived from it. Bridges are numbered along the chain shown (N, C = ends). [ ]: non-standard residue; d: D form. The star is where a group is joined. hTyr(3S-OH,4S-OH,3'-OSO3H) = N[C@H](C(=O)O)[C@H](O)[C@@H](O)c1ccc(O)c(OS(=O)(=O)O)c1; Orn(4R-OH,5R-OH) = O=C([C@H](C[C@@H](O)[C@@H](O)N[*:3])N[*:1])[*:2]; Pro(3S-OH,4S-Me) = C[C@H]1CN[C@H](C(=O)O)[C@H]1O; X1 = CCCCCOc1ccc(-c2cc(-c3ccc(C(=O)*)cc3)no2)cc1; Gln(3R-OH) = NC(=O)C[C@@H](O)[C@H](N)C(=O)O; Hyp = O=C(O)[C@@H]1C[C@@H](O)CN1
# Columns and labels:
# [1] = molecular target: T1, Adenosine receptor A3 (Homo sapiens, UniProt P0DMS8)
# T1 sequence (P0DMS8 whole entry): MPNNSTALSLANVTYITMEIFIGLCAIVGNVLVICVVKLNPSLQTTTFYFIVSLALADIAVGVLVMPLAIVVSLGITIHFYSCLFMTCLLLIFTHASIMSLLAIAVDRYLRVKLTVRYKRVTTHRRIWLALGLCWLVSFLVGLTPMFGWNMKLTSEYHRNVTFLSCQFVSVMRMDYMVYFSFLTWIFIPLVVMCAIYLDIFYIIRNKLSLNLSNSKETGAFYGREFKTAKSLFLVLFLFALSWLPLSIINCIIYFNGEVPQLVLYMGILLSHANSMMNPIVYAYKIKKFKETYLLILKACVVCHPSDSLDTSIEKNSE
# [2] = molecular target: Gamma-aminobutyric acid receptor subunit alpha-1/alpha-2/beta-2/gamma-2 (Homo sapiens, UniProt P14867+P18507+P47869+P47870); format: protein-complex assay
# [3] = molecular target: T2, Alpha-2C adrenergic receptor (Homo sapiens, UniProt P18825); format: functional
# T2 sequence (P18825 whole entry): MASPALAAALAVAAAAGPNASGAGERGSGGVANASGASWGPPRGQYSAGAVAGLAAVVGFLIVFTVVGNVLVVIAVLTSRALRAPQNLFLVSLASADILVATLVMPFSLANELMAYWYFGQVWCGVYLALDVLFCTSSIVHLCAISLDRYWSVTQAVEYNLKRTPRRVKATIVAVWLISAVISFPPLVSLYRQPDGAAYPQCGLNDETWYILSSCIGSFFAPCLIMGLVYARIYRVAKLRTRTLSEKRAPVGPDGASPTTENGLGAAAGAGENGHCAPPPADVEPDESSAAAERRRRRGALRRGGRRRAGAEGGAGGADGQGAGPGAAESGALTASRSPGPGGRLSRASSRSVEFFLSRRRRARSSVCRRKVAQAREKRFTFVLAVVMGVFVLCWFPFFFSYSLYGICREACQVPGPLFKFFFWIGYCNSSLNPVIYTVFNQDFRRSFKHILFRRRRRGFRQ
# [4] = molecular target: Vasopressin V2 receptor (Homo sapiens, UniProt P30518)
# [5] = molecular target: T3, Muscarinic acetylcholine receptor M2 (Homo sapiens, UniProt P08172); format: functional, cell-based
# T3 sequence (P08172 whole entry): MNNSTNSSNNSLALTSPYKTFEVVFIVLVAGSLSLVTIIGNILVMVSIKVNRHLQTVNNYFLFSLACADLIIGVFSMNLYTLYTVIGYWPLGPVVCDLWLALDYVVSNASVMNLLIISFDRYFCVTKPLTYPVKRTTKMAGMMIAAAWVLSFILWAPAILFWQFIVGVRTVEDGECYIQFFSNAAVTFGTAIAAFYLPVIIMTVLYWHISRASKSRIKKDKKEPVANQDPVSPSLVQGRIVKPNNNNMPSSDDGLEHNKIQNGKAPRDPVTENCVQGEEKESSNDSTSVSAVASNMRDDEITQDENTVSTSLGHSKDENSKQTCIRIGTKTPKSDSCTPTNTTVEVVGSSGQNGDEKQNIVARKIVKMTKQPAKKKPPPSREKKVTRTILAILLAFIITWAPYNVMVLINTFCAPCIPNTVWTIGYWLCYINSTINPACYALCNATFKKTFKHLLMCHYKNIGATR
# [6] = molecular target: T4, Adenosine receptor A1 (Homo sapiens, UniProt P30542)
# T4 sequence (P30542 whole entry): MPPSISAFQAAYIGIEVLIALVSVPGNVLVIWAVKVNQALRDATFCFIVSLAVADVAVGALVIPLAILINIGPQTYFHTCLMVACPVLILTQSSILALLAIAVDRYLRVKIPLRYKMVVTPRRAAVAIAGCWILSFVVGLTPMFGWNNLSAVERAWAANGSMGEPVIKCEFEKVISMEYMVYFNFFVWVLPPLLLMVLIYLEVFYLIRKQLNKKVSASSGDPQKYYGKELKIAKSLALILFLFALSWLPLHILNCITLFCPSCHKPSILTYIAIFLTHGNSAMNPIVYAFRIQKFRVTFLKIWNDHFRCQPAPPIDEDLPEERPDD
# [7] = molecular target: T5, Amine oxidase [flavin-containing] A (Homo sapiens, UniProt P21397); format: functional
# T5 sequence (P21397 whole entry): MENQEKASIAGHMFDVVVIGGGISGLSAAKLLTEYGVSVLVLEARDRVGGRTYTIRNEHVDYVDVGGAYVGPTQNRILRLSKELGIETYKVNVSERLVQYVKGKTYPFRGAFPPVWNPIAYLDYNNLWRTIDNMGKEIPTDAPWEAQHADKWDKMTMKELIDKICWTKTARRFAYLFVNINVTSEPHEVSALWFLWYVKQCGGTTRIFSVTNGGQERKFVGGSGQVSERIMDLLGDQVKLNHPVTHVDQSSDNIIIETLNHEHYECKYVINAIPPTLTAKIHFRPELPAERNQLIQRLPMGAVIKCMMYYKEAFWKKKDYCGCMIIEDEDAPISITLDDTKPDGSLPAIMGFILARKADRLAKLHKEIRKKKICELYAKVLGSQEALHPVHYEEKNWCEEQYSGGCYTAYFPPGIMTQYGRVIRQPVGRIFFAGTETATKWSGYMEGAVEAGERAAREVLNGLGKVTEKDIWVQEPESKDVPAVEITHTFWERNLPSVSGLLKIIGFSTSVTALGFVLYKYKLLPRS
# [8] = molecular target: T6, 5-hydroxytryptamine receptor 2C (Homo sapiens, UniProt P28335)
# T6 sequence (P28335 whole entry): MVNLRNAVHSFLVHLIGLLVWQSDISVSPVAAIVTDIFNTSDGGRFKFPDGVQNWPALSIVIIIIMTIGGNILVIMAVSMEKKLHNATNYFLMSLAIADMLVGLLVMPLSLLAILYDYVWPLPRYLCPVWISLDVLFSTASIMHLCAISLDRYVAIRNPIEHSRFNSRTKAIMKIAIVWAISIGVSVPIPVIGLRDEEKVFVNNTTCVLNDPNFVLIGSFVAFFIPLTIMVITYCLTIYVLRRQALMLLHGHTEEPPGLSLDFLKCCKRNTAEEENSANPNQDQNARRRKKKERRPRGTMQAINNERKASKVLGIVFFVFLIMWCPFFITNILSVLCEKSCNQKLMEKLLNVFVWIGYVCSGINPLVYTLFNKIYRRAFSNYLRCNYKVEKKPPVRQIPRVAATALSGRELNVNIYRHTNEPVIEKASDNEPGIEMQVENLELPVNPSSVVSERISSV
# Further: assay procedure not described here.
# Vasopressin V2 receptor, sequence (P30518 whole entry): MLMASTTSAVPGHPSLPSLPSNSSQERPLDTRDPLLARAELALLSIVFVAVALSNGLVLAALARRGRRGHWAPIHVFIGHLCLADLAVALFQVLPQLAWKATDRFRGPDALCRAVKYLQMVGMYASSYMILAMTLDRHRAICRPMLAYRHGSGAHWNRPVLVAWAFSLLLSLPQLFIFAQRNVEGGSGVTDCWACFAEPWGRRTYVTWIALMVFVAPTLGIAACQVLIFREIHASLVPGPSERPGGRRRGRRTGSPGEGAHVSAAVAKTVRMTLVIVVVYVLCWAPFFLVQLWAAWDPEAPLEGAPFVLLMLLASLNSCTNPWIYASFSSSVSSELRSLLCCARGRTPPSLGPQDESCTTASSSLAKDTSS
# Gamma-aminobutyric acid receptor subunit alpha-1/alpha-2/beta-2/gamma-2, sequence (P14867 whole entry): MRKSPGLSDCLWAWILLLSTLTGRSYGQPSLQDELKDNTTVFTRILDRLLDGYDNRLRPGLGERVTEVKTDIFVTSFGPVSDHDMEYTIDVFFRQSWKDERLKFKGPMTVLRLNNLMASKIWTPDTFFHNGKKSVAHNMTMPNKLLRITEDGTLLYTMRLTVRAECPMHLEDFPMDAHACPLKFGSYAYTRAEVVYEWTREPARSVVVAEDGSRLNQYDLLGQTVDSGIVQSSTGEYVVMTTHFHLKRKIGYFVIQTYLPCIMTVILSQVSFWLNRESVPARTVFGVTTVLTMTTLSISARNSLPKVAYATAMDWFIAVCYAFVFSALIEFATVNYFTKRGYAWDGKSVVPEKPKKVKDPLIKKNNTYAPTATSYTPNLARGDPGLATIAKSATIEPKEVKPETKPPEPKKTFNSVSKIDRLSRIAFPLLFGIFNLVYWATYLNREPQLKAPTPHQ
# Gamma-aminobutyric acid receptor subunit alpha-1/alpha-2/beta-2/gamma-2, sequence (P47870 whole entry): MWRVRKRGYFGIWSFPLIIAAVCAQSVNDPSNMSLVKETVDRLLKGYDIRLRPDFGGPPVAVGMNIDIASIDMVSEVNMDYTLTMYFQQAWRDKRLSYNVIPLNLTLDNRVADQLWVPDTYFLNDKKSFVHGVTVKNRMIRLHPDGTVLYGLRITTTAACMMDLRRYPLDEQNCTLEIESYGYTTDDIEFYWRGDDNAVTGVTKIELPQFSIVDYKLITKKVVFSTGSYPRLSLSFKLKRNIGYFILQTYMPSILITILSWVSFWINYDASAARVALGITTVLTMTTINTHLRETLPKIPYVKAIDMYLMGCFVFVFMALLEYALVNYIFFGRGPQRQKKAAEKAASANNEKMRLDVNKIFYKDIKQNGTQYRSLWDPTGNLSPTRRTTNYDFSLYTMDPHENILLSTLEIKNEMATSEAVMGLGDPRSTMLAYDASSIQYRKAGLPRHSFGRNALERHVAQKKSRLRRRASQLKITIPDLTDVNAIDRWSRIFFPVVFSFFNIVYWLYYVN
# Gamma-aminobutyric acid receptor subunit alpha-1/alpha-2/beta-2/gamma-2, sequence (P18507 whole entry): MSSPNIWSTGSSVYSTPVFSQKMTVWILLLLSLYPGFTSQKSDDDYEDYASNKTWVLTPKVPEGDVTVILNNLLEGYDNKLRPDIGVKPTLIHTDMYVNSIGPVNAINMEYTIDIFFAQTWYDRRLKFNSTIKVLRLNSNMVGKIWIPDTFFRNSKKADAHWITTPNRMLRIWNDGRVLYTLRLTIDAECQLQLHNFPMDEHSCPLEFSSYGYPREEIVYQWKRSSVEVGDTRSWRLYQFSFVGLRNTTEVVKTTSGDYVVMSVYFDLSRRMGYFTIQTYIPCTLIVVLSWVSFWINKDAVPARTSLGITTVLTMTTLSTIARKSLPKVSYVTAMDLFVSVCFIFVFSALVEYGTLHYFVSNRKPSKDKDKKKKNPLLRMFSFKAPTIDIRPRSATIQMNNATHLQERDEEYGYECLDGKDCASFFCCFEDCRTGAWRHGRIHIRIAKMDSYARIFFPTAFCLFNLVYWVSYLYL
# Gamma-aminobutyric acid receptor subunit alpha-1/alpha-2/beta-2/gamma-2, sequence (P47869 whole entry): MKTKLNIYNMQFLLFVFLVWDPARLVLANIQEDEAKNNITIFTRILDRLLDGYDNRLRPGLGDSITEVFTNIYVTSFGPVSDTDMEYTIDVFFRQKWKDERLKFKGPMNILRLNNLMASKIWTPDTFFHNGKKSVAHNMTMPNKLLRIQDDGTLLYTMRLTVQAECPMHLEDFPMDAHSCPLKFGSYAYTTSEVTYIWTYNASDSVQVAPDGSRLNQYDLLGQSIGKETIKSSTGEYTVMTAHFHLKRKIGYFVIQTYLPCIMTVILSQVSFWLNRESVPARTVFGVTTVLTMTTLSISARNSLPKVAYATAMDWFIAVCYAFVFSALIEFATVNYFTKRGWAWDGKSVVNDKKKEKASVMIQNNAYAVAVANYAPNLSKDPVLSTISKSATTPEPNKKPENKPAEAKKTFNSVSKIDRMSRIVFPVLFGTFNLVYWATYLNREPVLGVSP
SMILES,AC50 [1] [µM],AC50 [2] [µM],AC50 [3] [µM],AC50 [4] [µM],AC50 [5] [µM],AC50 [6] [µM],AC50 [7] [µM],AC50 [8] [µM]
CN1CCC[C@@H]1Cc1c[nH]c2ccc(CCS(=O)(=O)c3ccccc3)cc12,> 30,,,,,,,
COc1nccnc1NS(=O)(=O)c1ccc(N)cc1,> 30,> 30,,,,,,
NC(=O)c1nc(F)c[nH]c1=O,> 30,,,,,,,
CN(C)CCCN1C(=O)c2cc([N+](=O)[O-])ccc2Oc2ccccc21,> 30,> 30,,,,,,
O=S(=O)(O)CCS [2-MERCAPTOETHANESULFONIC ACID],> 30,> 30,,,,,,
O=C(O)COc1nn(Cc2ccccc2)c2ccccc12 [BENDAZAC],> 30,> 30,,,,,,
Cc1ccc([C@@H]2O[C@H](CO)[C@@H](O)[C@H](O)[C@H]2O)cc1Cc1ccc(-c2ccc(F)cc2)s1 [CANAGLIFLOZIN ANHYDROUS],18.4,,,,,,,
O=C(O)CCCc1ccc(N(CCCl)CCCl)cc1 [CHLORAMBUCIL],> 30,22.1,,,,,,
CN(C)CCN(Cc1ccc(Cl)cc1)c1ccccn1 [CHLOROPYRAMINE],> 30,,,,,,,
O=C(O)c1cc(=O)c2ccccc2o1 [CHROMOCARB],> 30,,,,,,,
CN(CC(=O)O)C(=N)N [CREATINE],> 30,> 30,,,,,,
N[C@@H](CSSC[C@H](N)C(=O)O)C(=O)O [CYSTINE],> 30,,,,,,,
Cn1c(=O)c2c(ncn2CC(O)CO)n(C)c1=O (stereo unspecified) [DYPHYLLINE],> 30,> 30,,,,,,
C[C@]12CC[C@@H]3c4ccc(O)cc4CC[C@H]3[C@@H]1CC[C@@H]2OC(=O)CCC1CCCC1 [ESTRADIOL CYPIONATE],9.98,,,,,,,
CC1(C)O[C@@H]2C[C@H]3[C@@H]4CCC5=CC(=O)CC[C@]5(C)[C@@]4(F)[C@@H](O)C[C@]3(C)[C@]2(C(=O)CCl)O1 [HALCINONIDE],> 30,,,,,,,
C[C@]12CCC(=O)C=C1CC[C@@H]1[C@@H]2[C@@H](O)C[C@@]2(C)[C@H]1CC[C@]2(O)C(=O)COC(=O)CCC(=O)O [HYDROCORTISONE HEMISUCCINATE ANHYDROUS],> 30,,,,,,,
N=C(N)NCc1cccc([123I])c1 [IOBENGUANE I 123],> 30,,,,,,,

SMILES,AC50 [1] [µM],AC50 [2] [µM],AC50 [3] [µM],AC50 [4] [µM],AC50 [5] [µM],AC50 [6] [µM],AC50 [7] [µM],AC50 [8] [µM]
C=C1c2c(Cl)ccc(O)c2C(=O)C2=C(O)[C@]3(O)C(=O)C(C(N)=O)=C(O)[C@@H](N(C)C)[C@@H]3[C@@H](O)[C@H]12 [MECLOCYCLINE],> 30,,,,,,,
"CCCCCOc1ccc(-c2cc(-c3ccc(C(=O)N[C@H]4C[C@@H](O)[C@@H](O)NC(=O)[C@@H]5[C@@H](O)[C@@H](C)CN5C(=O)[C@H]([C@H](O)CC(N)=O)NC(=O)[C@H]([C@H](O)[C@@H](O)c5ccc(O)c(OS(=O)(=O)O)c5)NC(=O)[C@@H]5C[C@@H](O)CN5C(=O)[C@H]([C@@H](C)O)NC4=O)cc3)no2)cc1 [MICAFUNGIN] (X1-[Orn(4R-OH,5R-OH)]T[Hyp][hTyr(3S-OH,4S-OH,3'-OSO3H)][Gln(3R-OH)][Pro(3S-OH,4S-Me)]; lactam 1-C)",11.4,,,,,,,
C#C[C@]1(O)CC[C@H]2[C@@H]3CCC4=C(CCC(=O)C4)[C@H]3CC[C@@]21C [NORETHYNODREL],10.1,,,,,,,
COc1ccnc(C[S+]([O-])c2nc3ccc(OC(F)F)cc3[nH]2)c1OC (stereo unspecified) [PANTOPRAZOLE],,,> 10,> 30,> 10,> 30,> 10,> 30
COc1ccc(Cc2nccc3cc(OC)c(OC)cc23)cc1OC [PAPAVERINE],,,> 30,> 30,> 30,> 30,> 30,> 30
CNC[C@H](O)c1cccc(O)c1 [PHENYLEPHRINE],> 30,,,> 30,> 10,> 30,> 10,> 30
O=C1NC(=O)C(c2ccccc2)(c2ccccc2)N1 [PHENYTOIN],,,> 30,> 30,> 30,> 30,> 30,> 30
CC(C)COc1ccc(CNC(=O)N(Cc2ccc(F)cc2)C2CCN(C)CC2)cc1 [PIMAVANSERIN],> 30,,,,,,,
CC(C)C[C@H](CN)CC(=O)O [PREGABALIN],,,> 30,> 30,> 30,> 30,> 30,> 30
O=C(Nc1c(Cl)cncc1Cl)c1ccc(OC(F)F)c(OCC2CC2)c1 [ROFLUMILAST],,,> 30,> 30,> 30,> 30,> 30,> 30
CCCN(CCC)CCc1cccc2c1CC(=O)N2 [ROPINIROLE],,,> 30,> 30,> 30,> 30,> 30,> 30
CC(C)N(CCCCOCC(=O)NS(C)(=O)=O)c1cnc(-c2ccccc2)c(-c2ccccc2)n1 [SELEXIPAG],,,> 30,> 30,> 30,> 30,> 30,> 30
CC(=O)S[C@@H]1CC2=CC(=O)CC[C@]2(C)[C@H]2CC[C@@]3(C)[C@@H](CC[C@@]34CCC(=O)O4)[C@H]12 [SPIRONOLACTONE],,,> 30,> 30,> 30,> 30,> 30,> 30
CCCCNc1ccc(C(=O)OCCN(C)C)cc1 [TETRACAINE],,,> 10,> 30,> 10,> 30,0.97,> 10
CC1(C)O[C@@H]2[C@@H](CO[C@@]3(COS(N)(=O)=O)OC(C)(C)O[C@@H]23)O1 [TOPIRAMATE],,,> 10,> 30,> 10,> 30,> 10,> 30
NCCc1ccc(O)cc1 [TYRAMINE],> 30,,,,,,,
Cc1cc(CC(=O)O)n(C)c1C(=O)c1ccc(Cl)cc1 [ZOMEPIRAC],,,> 30,> 30,> 30,> 30,> 30,> 30
